The values that follow come from patent US4107304A, “Oxo-imidazolidine substituted cephalosporins and antibacterial compositions and methods of combatting bacteria employing them” (Bayer Aktiengesellschaft, priority 1974, dated 1978).

One experiment deals with Serratia marcescens. The experiment is described as follows: In vitro turbidity test, 24 h in Muller-Hinton broth. As to conditions: 100 μg/ml. In kind it is cell-based.
Experiment [1] has as its system Staphylococcus aureus 133. The description is as above. Format: cell-based. As to conditions: 100 μg/ml.
In experiment [2] the test system is Corynebacterium pyogenes M. Described as above. Format: cell-based. As to conditions: 100 μg/ml.
A further experiment relates to Shigella sp. Described as above. Format: cell-based. Particulars: 100 μg/ml.
A further experiment deals with Escherichia coli BE. The experiment is described as above. As to conditions: 100 μg/ml. In kind it is cell-based.
The next experiment has as its system Haemophilis influenzae. The description is as above. Format: cell-based. Particulars: 100 μg/ml.
The subject of experiment [3] is Neisseria catarrhalis sp. The experiment is described as above. In kind it is cell-based. Particulars: 100 μg/ml.
In the next experiment the test system is Brucella sp. Format: cell-based. Particulars: 100 μg/ml, 24 hours.
The test system of experiment [4] is Streptococcus pyogenes W. The experiment is described as follows: In vitro turbidity test, 24 h in Muller-Hinton broth. In kind it is cell-based. Particulars: 100 μg/ml.
Experiment [5] has as its system Corynebacterium diphtheria gravis. The experiment is described as above. Format: cell-based. As to conditions: 100 μg/ml.
The test system of experiment [6] is Bordetella bronchiseptica. The description is as above. In kind it is cell-based. Particulars: 100 μg/ml.
For a further experiment, the system named is Enterococcus sp. The experiment is described as above. Format: cell-based. Particulars: 100 μg/ml.
In experiment [7] the test system is pasteurella pseudotuberculosis. Format: cell-based. Particulars: 100 μg/ml, 24 hours.
A further experiment relates to Klebsiella pneumoniae. The experiment is described as follows: In vitro turbidity test, 24 h in Muller-Hinton broth. In kind it is cell-based. As to conditions: 100 μg/ml, 1 × 10^5 to 2 × 10^5 bacteria per milliliter, freedom from turbidity = active.
Another experiment relates to Providencia. Described as above. Format: cell-based. As to conditions: 100 μg/ml.
Experiment [8] relates to Enterobacter aerogenes sp. Described as above. As to conditions: 100 μg/ml. In kind it is cell-based.
The next experiment has as its system Lactobacillus sp. The experiment is described as above. In kind it is cell-based. As to conditions: 100 μg/ml.
Experiment [9] relates to Diplococcus pneumoniae sp. Described as above. Format: cell-based. Particulars: 100 μg/ml.
Experiment [10] relates to Proteus, indole negative and indole positive sp. The description is as above. Particulars: 100 μg/ml. Format: cell-based.
In another experiment the test system is Salmonella sp. The description is as above. As to conditions: 100 μg/ml. In kind it is cell-based.
The nature of experiment [11]: Antibiotic activity of electropherogram spot (organism not stated). In kind it is cell-based.
The next experiment concerns Escherichia coli. Briefly: Antibiotic activity of electropherogram spot. Particulars: against Escherichia coli. Format: cell-based.
The next experiment concerns Pseudomonas aeruginosa. Briefly: Antibiotic activity of electropherogram spot. Format: cell-based. As to conditions: against Pseudomonas aeruginosa.
The subject of a further experiment is B. subtilis. The experiment is described as follows: Antibiotic activity of electropherogram spot. Format: cell-based. As to conditions: against B. subtilis.
The test system of experiment [12] is Staphylococcus aureus 133. Briefly: Animal experiments with white mice, intraperitoneal infection, survival after 24 hours. As to conditions: Staphylococcus aureus, 133, sc, subcutaneous, 1 administration 30 minutes after infection, dose at which 50% of infected animals survive, read-out: ED 50 after 24 hours. Format: in vivo, white mice of strain CF1. As to the method: (§1) The white mice of strain CF1 were infected intraperitoneally with the species of bacteria indicated. |Animal Experiments With White Mice |Determination of the ED 50 after 24 hours | Dose in mg of the cephalosporin from | Example 6 per kg of body weight |Germ (administered subcutaneously) |Therapy: 1 administration 30 minutes after infection. | The ED 50 is the dose at which 50% of the infected |animals still survive after 24 hours.

The next experiment relates to Escherichia coli C 165. Described as above. In kind it is in vivo, white mice of strain CF1. As to conditions: C165, sc, subcutaneous, 1 administration 30 minutes after infection, dose at which 50% of infected animals survive, read-out: ED 50 after 24 hours. As to the method: as §1

For the compound `CC(=O)OCC1=C(C(=O)O)N2C(=O)[C@@H](NC(=O)[C@H](NC(=O)N3CCN(C)C3=O)c3ccccc3)[C@H]2SC1` [Example 3, sodium 7-{D-α-[(3-methyl-2-oxo-imidazolidin-1-yl)-carbonylamino]-phenylacetamido}-3-acetoxymethyl-ceph-3-em-4-carboxylate], the degree of turbidity result (in the experiment on Serratia marcescens; in experiment [1]; in experiment [2]; with Shigella sp.; with Escherichia coli BE; in the experiment with Haemophilis influenzae) was “free from turbidity” in each case. For the same compound, the degree of turbidity result (in [3]; in the experiment on Brucella sp.; in experiment [4]; in experiment [5]; in experiment [6]; with Enterococcus sp.) was “free from turbidity” throughout. The degree of turbidity result (in experiment [7]; in the experiment with Klebsiella pneumoniae; in the experiment with Providencia; in experiment [8]; in the experiment on Lactobacillus sp.; in [9]) was “free from turbidity” throughout. Moreover, the degree of turbidity result (in [10]; in the experiment with Salmonella sp.) was “free from turbidity” each time.
Consider `CC1=C(C(=O)O)N2C(=O)[C@@H](NC(=O)[C@H](NC(=O)N3CCNC3=O)c3ccccc3)[C@H]2SC1` [Example 2, 7-{D-α-[(2-Oxo-imidazolidin-1-yl)-carbonylamino]-phenylacetamido}-3-methyl-ceph-3-em-4-carboxylic acid], for which the “antibiotic activity of the electropherogram spot” value (from here on “antibiotic activity”) in [11] is given as “only one spot with antibiotic activity”.
With `CC(=O)OCC1=C(C(=O)O)N2C(=O)[C@@H](NC(=O)[C@H](NC(=O)N3CCNC3=O)c3ccccc3)[C@H]2SC1` [Example 1, sodium 7-{D-α-[(2-oxo-imidazolidin-1-yl)carbonylamino]-phenylacetamido}-3-acetoxymethyl-ceph-3-em-4-carboxylate], the “antibiotic activity” value in the experiment on Escherichia coli, in the experiment with Pseudomonas aeruginosa and in the experiment with B. subtilis was “only one spot with antibiotic activity” throughout.
`CC(=O)OCC1=C(C(=O)O)N2C(=O)[C@@H](NC(=O)[C@H](NC(=O)N3CCN(S(=O)(=O)c4ccccc4)C3=O)c3ccccc3)[C@H]2SC1` [Example 7, Sodium 7-{D-α-[(2-oxo-3-phenylsulphonyl-imidazolidin-1-yl)-carbonylamino]-phenylacetamido}-3-acetoxymethyl-ceph-3-em-4-carboxylate]: the degree of turbidity result (with Serratia marcescens; in experiment [1]; in experiment [2]; in the experiment with Shigella sp.; with Escherichia coli BE; with Haemophilis influenzae) was “free from turbidity” each time. For the same compound, the degree of turbidity entry (in [3]; in the experiment with Brucella sp.; in experiment [4]; in experiment [5]; in experiment [6]; with Enterococcus sp.) was “free from turbidity” throughout. Moreover, the degree of turbidity entry (in experiment [7]; in the experiment on Klebsiella pneumoniae; in the experiment with Providencia; in [8]; in the experiment on Lactobacillus sp.; in experiment [9]) was “free from turbidity” in each case. The degree of turbidity result (in experiment [10]; in the experiment on Salmonella sp.) was “free from turbidity” each time.
With `CC(=O)OCC1=C(C(=O)O)N2C(=O)[C@@H](NC(=O)[C@H](NC(=O)N3CCN(S(C)(=O)=O)C3=O)c3ccccc3)[C@H]2SC1` [Example 6, Sodium 7-{D-α-[(2-oxo-3-mesyl-imidazolidin-1-yl)-carbonylamino]-phenylacetamido}-3-acetoxymethyl-ceph-3-em-4-carboxylate], the degree of turbidity result (in the experiment on Serratia marcescens; in [1]; in experiment [2]; with Shigella sp.; with Escherichia coli BE; in the experiment with Haemophilis influenzae) was “free from turbidity” in each case. Besides, the degree of turbidity entry (in [3]; in the experiment with Brucella sp.; in experiment [4]; in experiment [5]; in experiment [6]; with Enterococcus sp.) was “free from turbidity” in each case. Also, the degree of turbidity result (in [7]; with Klebsiella pneumoniae; in the experiment with Providencia; in experiment [8]; in the experiment with Lactobacillus sp.; in experiment [9]) was “free from turbidity” throughout. For the same compound, the degree of turbidity entry (in experiment [10]; with Salmonella sp.) was “free from turbidity” each time. Besides, the “antibiotic activity” value in [11] is listed as “one spot with antibiotic activity”. Also, the ED50 in experiment [12] was found to be 10 mg/kg; in the experiment with Escherichia coli C 165 it was 200 mg/kg.
